Data set [1] concerns Candida albicans. The data set is described as follows: Synergistic antifungal activity against FLC-resistant Candida albicans 304103 assessed as fungal growth inhibition incubated for 48 hrs in presence of FLC by broth microdilution method. It is filed as functional. (In broth dilution the organism is exposed to a series of concentrations in liquid medium.)
For data set [2], the system named is Candida albicans. Kind of data set: Synergistic antifungal activity against FLC-resistant Candida albicans 8 assessed as MIC of FLC incubated for 48 hrs by broth microdilution method. It is filed as functional.
In data set [3] the test system is Candida albicans. The data set is described as follows: Synergistic antifungal activity against FLC-resistant Candida albicans 395 assessed as MIC of FLC incubated for 48 hrs by broth microdilution method. It is filed as functional.
The subject of data set [4] is Candida albicans. Kind of data set: Synergistic antifungal activity against Candida albicans 0304103 assessed as fungal growth inhibition at 4 ug/ml incubated for 48 hrs in presence of FLC by time-kill assay. It is filed as functional, organism-based. The conditions noted are these: dose 4.0 µg/ml.
Data set [5] concerns Candida albicans. Kind of data set: Antifungal activity against Candida albicans SC5314 infected in C57BL/6 mouse assessed as mean fungal burden at 2 mg/kg, ip measured after 46 hrs by plate count method (reference value: 6.902 log10CFU/ml). It is filed as functional.
For data set [6], the system named is Candida albicans. The data set is described as follows: Synergistic antifungal activity against FLC-resistant Candida albicans 512644 assessed as MIC of FLC incubated for 48 hrs by broth microdilution method. It is filed as functional.
Data set [7] is described as follows: Oral bioavailability in Sprague-Dawley rat at 5 mg/kg by LC-MS/MS analysis. The conditions noted are these: in vivo. It is filed as ADME, organism-based.
The test system of data set [8] is Candida albicans. The data set is described as follows: Inhibition of biofilm formation of Candida albicans SC5314 at 8 ug/ml incubated for 24 hrs by XTT assay relative to control. It is filed as functional.
Data set [9] has as its system Candida albicans. The data set is described as follows: Synergistic antifungal activity against FLC-resistant Candida albicans 512681 assessed as fungal growth inhibition incubated for 48 hrs in presence of FLC by broth microdilution method. It is filed as functional.
Data set [10] relates to Candida albicans. Kind of data set: Synergistic antifungal activity against FLC-resistant Candida albicans 100 assessed as fractional inhibitory concentration index incubated for 48 hrs in presence of FLC by broth microdilution method. It is filed as functional.
Data set [11] concerns Candida albicans. The data set is described as follows: Synergistic antifungal activity against FLC-resistant Candida albicans 512681 assessed as MIC of FLC incubated for 48 hrs by broth microdilution method. It is filed as functional.
Data set [12] can be described thus: Volume of distribution at steady state in Sprague-Dawley rat at 2 mg/kg, iv by LC-MS/MS analysis. It is filed as ADME, organism-based. To be noted: in vivo, read-out: Vdss.
In data set [13] the test system is Candida albicans. The data set is described as follows: Synergistic antifungal activity against FLC-resistant Candida albicans 11 assessed as fractional inhibitory concentration index incubated for 48 hrs in presence of FLC by broth microdilution method. It is filed as functional.
Data set [14] concerns Candida albicans. The data set is described as follows: Synergistic antifungal activity against FLC-resistant Candida albicans 1221 assessed as MIC of FLC incubated for 48 hrs by broth microdilution method. It is filed as functional.
The test system of data set [15] is Candida albicans. The data set is described as follows: Synergistic antifungal activity against FLC-resistant Candida albicans 5740 assessed as fractional inhibitory concentration index incubated for 48 hrs in presence of FLC by broth microdilution method. It is filed as functional.
Data set [16] has as its system Candida albicans. The data set is described as follows: Synergistic antifungal activity against FLC-resistant Candida albicans 64548 assessed as MIC of FLC incubated for 48 hrs by broth microdilution method. It is filed as functional.
Data set [17] concerns Candida albicans. The data set is described as follows: Synergistic antifungal activity against FLC-resistant Candida albicans 305 assessed as MIC of FLC incubated for 48 hrs by broth microdilution method. It is filed as functional.
Data set [18] deals with Candida albicans. The data set is described as follows: Synergistic antifungal activity against FLC-resistant Candida albicans 1221 assessed as fractional inhibitory concentration index incubated for 48 hrs in presence of FLC by broth microdilution method. It is filed as functional.
Data set [19] concerns Candida albicans. Kind of data set: Synergistic antifungal activity against FLC-resistant Candida albicans 538 assessed as fractional inhibitory concentration index incubated for 48 hrs in presence of FLC by broth microdilution method. It is filed as functional.
Data set [20] has as its system Candida albicans. The data set is described as follows: Antifungal activity against Candida albicans 0304103 assessed as fungal growth inhibition at 4 to 8 ug/ml incubated for 48 hrs by time-kill assay. The conditions noted are these: dose 4-8 µg/ml. It is filed as functional, organism-based.
In data set [21] the test system is Candida albicans. Kind of data set: Synergistic antifungal activity against FLC-resistant Candida albicans 710419 assessed as fractional inhibitory concentration index incubated for 48 hrs in presence of FLC by broth microdilution method. It is filed as functional.
Data set [22] is described as follows: Tmax in Sprague-Dawley rat at 5 mg/kg, po by LC-MS/MS analysis. The conditions noted are these: in vivo. It is filed as ADME, organism-based.
Data set [23] relates to Candida albicans. The data set is described as follows: Synergistic antifungal activity against FLC-resistant Candida albicans 819 assessed as fungal growth inhibition incubated for 48 hrs in presence of FLC by broth microdilution method. It is filed as functional.
Data set [24] concerns Candida albicans. Kind of data set: Synergistic antifungal activity against FLC-resistant Candida albicans 540 assessed as fractional inhibitory concentration index incubated for 48 hrs in presence of FLC by broth microdilution method. It is filed as functional.
Data set [25] deals with Candida albicans. Kind of data set: Inhibition of hypha formation in Candida albicans SC5314 at 4 ug/ml incubated for 3 hrs by inverted phase contrast microscopy. It is filed as functional, organism-based. To be noted: dose 4.0 µg/ml.
The subject of data set [26] is Candida albicans. Kind of data set: Synergistic antifungal activity against FLC-resistant Candida albicans 241 assessed as fractional inhibitory concentration index incubated for 48 hrs in presence of FLC by broth microdilution method. It is filed as functional.
Data set [27] relates to Candida albicans. Kind of data set: Synergistic antifungal activity against FLC-resistant Candida albicans 241 assessed as MIC of FLC incubated for 48 hrs by broth microdilution method. It is filed as functional.
For data set [28], the system named is Candida albicans. Kind of data set: Synergistic antifungal activity against FLC-resistant Candida albicans 11 assessed as fungal growth inhibition incubated for 48 hrs in presence of FLC by broth microdilution method. It is filed as functional.
The test system of data set [29] is Candida albicans. Kind of data set: Synergistic antifungal activity against FLC-resistant Candida albicans 710506 assessed as fungal growth inhibition incubated for 48 hrs in presence of FLC by broth microdilution method. It is filed as functional.
Data set [30] relates to Candida albicans. Kind of data set: Synergistic antifungal activity against FLC-resistant Candida albicans 385 assessed as MIC of FLC incubated for 48 hrs by broth microdilution method. It is filed as functional.
The test system of data set [31] is Candida albicans. The data set is described as follows: Synergistic antifungal activity against FLC-resistant Candida albicans 395 assessed as fungal growth inhibition incubated for 48 hrs in presence of FLC by broth microdilution method. It is filed as functional.
Data set [32] relates to Candida albicans. Kind of data set: Synergistic antifungal activity against Candida albicans 0304103 assessed as reduction in fungal growth at 8 ug/ml incubated for 48 hrs in presence of FLC by time-kill assay. It is filed as functional. The conditions noted are these: dose 8 µg/ml.
In data set [33] the test system is Candida albicans. The data set is described as follows: Synergistic antifungal activity against FLC-resistant Candida albicans 710419 assessed as fungal growth inhibition incubated for 48 hrs in presence of FLC by broth microdilution method. It is filed as functional.
Data set [34] relates to Candida albicans. The data set is described as follows: Synergistic antifungal activity against FLC-resistant Candida albicans 512644 assessed as fungal growth inhibition incubated for 48 hrs in presence of FLC by broth microdilution method. It is filed as functional.
The test system of data set [35] is Candida albicans. The data set is described as follows: Synergistic antifungal activity against FLC-resistant Candida albicans 710506 assessed as MIC of FLC incubated for 48 hrs by broth microdilution method. It is filed as functional.
The test system of data set [36] is Candida albicans. The data set is described as follows: Antifungal activity against Candida albicans SC5314 assessed as fungal growth inhibition incubated for 48 hrs in presence of Cu2+ by broth microdilution method (reference value: 0.0625 ug/ml). It is filed as functional.
Data set [37] relates to Candida albicans. Kind of data set: Inhibition of biofilm formation of Candida albicans SC5314 at 4 ug/ml incubated for 24 hrs by XTT assay relative to control. It is filed as functional.
Data set [38] relates to Candida albicans. Kind of data set: Synergistic antifungal activity against FLC-resistant Candida albicans 17 assessed as MIC of FLC incubated for 48 hrs by broth microdilution method. It is filed as functional.
Data set [39] relates to Candida albicans. Kind of data set: Synergistic antifungal activity against FLC-resistant Candida albicans 12 assessed as fractional inhibitory concentration index incubated for 48 hrs in presence of FLC by broth microdilution method. It is filed as functional.
For data set [40], the system named is Candida albicans. The data set is described as follows: Inhibition of biofilm formation of Candida albicans SC5314 incubated for 24 hrs by XTT assay. It is filed as functional, organism-based. The conditions noted are these: dose <= 16.0 µg/ml. Background: Tetrazolium assays rely on reduction of a dye to a coloured formazan, in cell work by metabolically active cells.

The source made the active and inactive calls. No cut-off for these calls is given here. Where only a bound is given, the exact number is not on record here.

Results on two molecules are retold here after ChEMBL document CHEMBL5375952, “Discovery of Novel 8-Hydroxyquinoline Derivatives with Potent In Vitro and In Vivo Antifungal Activity” (J Med Chem, 2023).

The term MIC denotes the least concentration at which growth counts as inhibited. By bioavailability is commonly meant the share of a dose that reaches the circulation, judged against a reference dose that is usually intravenous. Lower therefore signals little systemic uptake. A word on the inhibition: it is the drop in the measured response relative to a control, in per cent. Broadly, the Tmax is the time at which the peak concentration occurs.

Regarding `CCN(CC)c1ccc(C(NC(=O)C(C)C)c2ccc3cccnc3c2O)cc1` (stereo not given), the MIC in data set [1] amounted to 0.008 µg/mL; in [2], 0.031 µg/mL; in data set [3] it was 0.25 µg/mL; in data set [6], 2 µg/mL; in [9], 0.031 µg/mL; in data set [11], 0.25 µg/mL. Also, the minimal inhibitory concentration (MIC) came out at 0.125 µg/mL in data set [14]; 0.063 µg/mL in [16]; 1 µg/mL in data set [17]; 0.016 µg/mL in data set [23]; 1 µg/mL in data set [27]; 0.008 µg/mL in data set [28]. Further, the MIC in [29] is 0.031 µg/mL; in [30], 2 µg/mL; in data set [31], 0.016 µg/mL; in data set [33], 0.031 µg/mL; in data set [34], 0.008 µg/mL; in data set [35] it was 0.5 µg/mL. In addition, the MIC was determined as 128 µg/mL in data set [36] and 0.125 µg/mL in data set [38]. Further, in data set [4], the “growth inhibition (GI)” value was “Active”. Also, the results for the Activity in [5] and in [32] were 6.318 log10CFU/ml and above 3 log10CFU/ml, respectively. For the same molecule, in data set [7], the bioavailability turned out to be 5.7%. The inhibition at 8 µg/mL in data set [8] turned out to be 16.5%. Also, the “fractional inhibitory concentration index (FICI)” value is listed as 0.14 in data set [10]; 0.039 in data set [13]; 0.312 in [15]; 0.126 in data set [18]; 0.047 in [19]; 0.064 in [21]. For the same molecule, the figures for the “fractional inhibitory concentration index (FICI)” value in [24], in [26] and in [39] were 0.064, 0.039 and 0.062, respectively. The Vd in [12] was 4.75 L/kg. Besides, in data set [20], the “growth inhibition (GI)” value was “inactive”. The Tmax in [22] came out at 15 min. Besides, the inhibition entry in [25] is “inactive”. The same molecule showed an inhibition at 4 µg/mL in data set [37] of 7.44%.

Regarding `OC(Cn1cncn1)(Cn1cncn1)c1ccc(F)cc1F` [FLUCONAZOLE], in data set [40], the inhibition result was “Dose-Dependent Effect”.
